From the METLIN SMRT retention time set (Domingo-Almenara et al. 2019)

Experiment: gradient 5% acetonitrile 3 min, to 50% in 2 min, to 85% in 15 min, held 3 min, 100 µL/min
Settings: column: Zorbax Extend-C18 2.1 x 50 mm; eluents: water / acetonitrile, 0.1% formic acid
Method in brief: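 Pure standards were analyzed in mixtures of ~100 molecules using HPLC coupled to a quadrupole time-of-flight mass spectrometer, in both positive and negative ionization mode. Separation used a Zorbax Extend-C18 column (2.1 × 50 mm, 1.8 μm) at 100 μL/min, with water and acetonitrile each containing 0.1% formic acid. Dead and dwell volumes were 40 μL and 900 μL, and data were collected over 3 months. Retention time was read from computationally picked adduct peaks, each inspected manually.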

RP-LC retention time [s] | Compound
962 | Clc1c(Cl)c(Cl)c2n[nH]nc2c1Cl
983 | O=C(CN1CN(c2ccccc2)c2ncccc2S1(=O)=O)Nc1cccc(Cl)c1
640 | COc1ccc(S(=O)(=O)N2CCCC(C(N)=O)C2)cc1OC (stereo not given)
642 | O=C(CCC1CCCN(S(=O)(=O)c2ccccc2F)C1)NCCN1CCOCC1 (stereo not given)
1150 | Cc1ccc(Sc2nccnc2N2CCC(C(=O)NCc3ccccc3C)CC2)cc1
677 | Cc1ccc(NC(=O)Cn2nc3n(c2=O)CCCC3)cc1F
1070 | COCCn1cc2c3c(cccc31)CN(C(=O)Nc1cc(Cl)ccc1OC)CC2
912 | CCCn1cc(S(=O)(=O)NCc2ccc(F)cc2)c2cccnc21
684 | COc1ccc(NC(=O)c2cnc(N3CCN(c4ccccc4F)CC3)nc2N)cc1
980 | CCC(CC)C(=O)Nc1nc(-c2ccc3c(c2)N(CC)C(=O)CO3)cs1
874 | CCOC(=O)c1c(S(=O)(=O)N2CCC(C(=O)Nc3ccccc3C)CC2)c(C)n(CC)c1C
827 | CCn1c(=O)sc2cc(S(=O)(=O)N3CCC(C(=O)Nc4nc(C)cs4)CC3)ccc21
1060 | Cc1ccc(-c2ccc(-n3nc(C)c(S(=O)(=O)N4CCOCC4)c3C)nn2)cc1C
762 | O=C(NCC1CCCCC1)C1CCCN(c2ccc(-c3ccccc3)nn2)C1 (stereo not given)
1010 | CCn1c(=O)sc2cc(S(=O)(=O)N3CCC(C(=O)Nc4cccc5c4CCCC5)CC3)ccc21
954 | CC(C)OC(=O)c1cc2ccsc2n1CC(=O)NCc1ccc(F)cc1
843 | O=C(Cn1c(=O)c2cc(-c3ccco3)nn2c2ncccc21)Nc1ccc(F)c(F)c1
849 | CCOC(=O)C1CCCN(C(=O)C2CCN(S(=O)(=O)c3ccc4c(ccn4CC)c3)CC2)C1 (stereo not given)
887 | CCCCn1nc2ccc(S(=O)(=O)N3CCCCC3)cn2c1=O
639 | CC(=O)NCC(=O)N1CC(F)(F)C[C@H]1c1nc(C2CC2)no1
896 | Cc1[nH]c(C(=O)N2CCCC(C(=O)NC(C)c3ccccc3)C2)c(C)c1C(=O)OC(C)C (stereo not given)

RP-LC retention time [s] | Compound
757 | CC(C)NC(=O)c1ccc(OCC2CCCN2C(=O)C(C)C)cc1 (stereo not given)
918 | Cc1ccc(Cl)cc1N(C)C(=O)C1CCCN(c2ncnc3c2nc2n3CCCCC2)C1 (stereo not given)
727 | Cc1nc2cc(N3CC(C(=O)N4CCN(c5ccccc5)CC4)CC3=O)ccc2o1 (stereo not given)
749 | CSc1ccccc1NC(=O)Cn1cnc(-c2cccs2)cc1=O
806 | COc1ccccc1Nc1c(-c2ccc(OC)c(OC)c2)nc2cnccn12
1320 | O=C(NC1CCCc2ccccc21)c1cc2sccc2n1Cc1ccc(Cl)cc1 (stereo not given)
619 | O=C1CCN(CC2CCCCC2)CCCC(c2nc(-c3cnccn3)no2)CCN1 (stereo not given)
599 | COc1ccc(OCC(=O)N2CCN(c3cc(C)n4c(C)nnc4n3)CC2)cc1
1250 | Cc1cccc(-c2noc(-c3nn(CC(=O)NC4CCCCC4)c4ccccc34)n2)c1
714 | CCCC(=O)NC1CCN(c2ccc(C)cc2)C1=O (stereo not given)
946 | O=C(Cn1cccc1-c1nnc(C2CCC2)o1)N1CCc2ccccc21
838 | CCc1ccc(NC(=O)N2CCC(n3cnc4ccc(C)cc4c3=O)CC2)cc1
682 | CC(C)CCN1CCC(N2CCN(S(=O)(=O)Cc3ccc(F)cc3Cl)CC2)C1=O (stereo not given)
1150 | Clc1ccccc1-c1nnc2sc(-c3ccc4ccccc4n3)nn12
865 | O=C(NCc1cccc(Cl)c1)C1CCN(c2nnc(-c3ccccc3)o2)CC1
746 | O=C(O)c1cc2cccc([N+](=O)[O-])c2[nH]1
720 | CC(C)N1C(=O)Cc2ccccc2C1C(=O)NCc1ccco1 (stereo not given)
670 | COCCCNC(=O)CCC(=O)N1CCCn2nc(-c3cn(C)c4ccccc34)cc21
989 | COc1ccccc1CNC(=O)c1c(C)sc2ccn(CC(C)C)c(=O)c12
818 | Cc1nnc2ccc(NC3CCCC3)nn12
560 | OC1(c2ccccn2)CCOC2(CCN(Cc3c(F)cccc3Cl)CC2)C1 (stereo not given)

RP-LC retention time [s] | Compound
664 | O=C(CN1CCc2[nH]c3c(F)c(Cl)ccc3c(=O)c2C1)NCc1ccccc1F
859 | CN1C(=O)c2cccnc2Sc2cc(NC(=O)c3cc(Cl)ccc3F)ccc21
718 | Cc1cc(C)n(-c2cc(NCCNC(=O)c3ccc(F)cc3F)ncn2)n1
624 | CN(C)c1cncnc1-n1cc(NC(=O)CCc2ccccc2)cn1
940 | Cc1cccc(-n2c(=O)c3c(cc(C)n3C)n(CC(=O)Nc3ccc(F)c(Cl)c3)c2=O)c1
702 | O=C(O)c1cccc(Nc2c(-c3ccc(F)cc3)nc3cnccn23)c1
1010 | Cn1c(=O)c2c(nc3n(-c4ccc(F)cc4)c(-c4ccc(Cl)cc4)cn23)n(C)c1=O
910 | CCOc1ccccc1NC(=O)C1CCN(S(C)(=O)=O)c2cc(Cl)ccc2O1 (stereo not given)
957 | Cc1ccc(NS(=O)(=O)c2ccc3c(c2)C(=O)N(C)c2ncccc2O3)cc1F
803 | Cc1nnc(N2CCCC(C(=O)NCCC3=CCCCC3)C2)c2nn(-c3ccccc3)c(C)c12 (stereo not given)
643 | CCn1c(=O)n(CC)c2cc(N3CCCC3)c(NC(=O)NCc3ccc(OC)cc3)cc21
796 | O=C(NCc1ccc2c(c1)OCO2)C1CCN(C(=O)c2ccc(-c3noc(C4CC4)n3)cc2)CC1
1010 | CC(=O)Nc1cccc(-c2nc(-c3ccc4c(c3)nnn4C3CCCC3)no2)c1
567 | Oc1c(C(c2ccccn2)N2CCN(c3ccccc3F)CC2)ccc2cccnc12 (stereo not given)
656 | CCNc1cc(N2CCCC(CCC(=O)NCc3ccccc3OC)C2)ncn1 (stereo not given)
800 | O=C(C1CCN(S(=O)(=O)c2ccc(-c3noc(C4CC4)n3)cc2)CC1)N1CCc2ccccc21
591 | O=C(CSc1nccn1-c1cccc(Cl)c1)Nc1ccccc1C(F)(F)F
818 | COc1cc(NC(=O)NC2CCN(c3cc(C)cc(C)c3)C2=O)cc(OC)c1 (stereo not given)
969 | Cc1ccc(Nc2c(-c3ccc(C)cc3)nc3cnccn23)cc1
747 | O=c1ccc(N2CCC(NS(=O)(=O)c3ccccc3Cl)CC2)nn1CC1CC1
1040 | O=C(NCCc1ccccc1)c1nnc(-c2ccc(S(=O)(=O)N3CCCCC3)cc2)o1

Compound | RP-LC retention time [s]
CC(=O)Nc1ccc(OC[C@](C)(O)C(=O)Nc2ccc([N+](=O)[O-])c(C(F)(F)F)c2)cc1 | 858
CCN1C[C@]2(OC(=O)c3ccccc3NC(C)=O)CCC(OC)[C@@]34C5C[C@@H]6C(OC)C[C@](O)([C@@H](CC23)[C@@H]14)C5(O)[C@H]6OC (stereo not given in full) | 760
